Source: patent US12071453B2, “Neuroactive steroids, compositions, and uses thereof” (Sage Therapeutics, Inc., priority 2013, dated 2024)

Tests used:
[1] = molecular target: [35S]-TBPS binding in rat brain cortical membranes; experiment: Steroid inhibition of [35S]-TBPS binding, rat brain cortical membranes; details: 3 nM [35S]-TBPS, in the presence of 5 μM GABA, read-out: 35S-TBPS Radioligand Displacement (IC50)
Method: TBPS binding assays using rat brain cortical membranes in the presence of 5 μM GABA has been described (Gee et al, J. Pharmacol. Exp. Ther. 1987, 241, 346-353; Hawkinson et al, Mol. Pharmacol. 1994, 46, 977-985; Lewin, A. H et al., Mol. Pharmacol. 1989, 35, 189-194).
Briefly, cortices are rapidly removed following decapitation of carbon dioxide-anesthetized Sprague-Dawley rats (200-250 g). The cortices are homogenized in 10 volumes of ice-cold 0.32 M sucrose using a glass/teflon homogenizer and centrifuged at 1500×g for 10 min at 4° C. The resultant supernatants are centrifuged at 10,000×g for 20 min at 4° C. to obtain the P2 pellets. The P2 pellets are resuspended in 200 mM NaCl/50 mM Na—K phosphate pH 7.4 buffer and centrifuged at 10,000×g for 10 min at 4° C. This washing procedure is repeated twice and the pellets are resuspended in 10 volumes of buffer. Aliquots (100 μL) of the membrane suspensions are incubated with 3 nM [^35S]-TBPS and 5 μL aliquots of test drug dissolved in dimethyl sulfoxide (DMSO) (final 0.5%) in the presence of 5 μM GABA. The incubation is brought to a final volume of 1.0 mL with buffer. Nonspecific binding is determined in the presence of 2 μM unlabeled TBPS and ranged from 15 to 25%. Following a 90 min incubation at room temp, the assays are terminated by filtration through glass fiber filters (Schleicher and Schuell No. 32) using a cell harvester (Brandel) and rinsed three times with ice-cold buffer. Filter bound radioactivity is measured by liquid scintillation spectrometry. Non-linear curve fitting of the overall data for each drug averaged for each concentration is done using Prism (GraphPad). […] The concentration of test compound producing 50% inhibition (IC50) of specific binding and the maximal extent of inhibition (Imax) are determined for the individual experiments with the same model used for the overall data and then the mean±SEM.s of the individual experiments are calculated.
Various compounds are or can be screened to determine their potential as modulators of [^35S]-TBPS binding in vitro. These assays are or can be performed in accordance with the above discussed procedures.

[2] = molecular target: T1, GABAA receptors composed of the α1β2γ2 subunits (GABRA1/GABRB2/GABRG2) (Homo sapiens, UniProt P14867+P47870); experiment: Two Electrode Voltage Clamp (TEVC), GABA receptor potentiation in Xenopus laevis oocytes, α1β2γ2; assay type: cell-based; details: 10 μM compound, 10 μM GABA, read-out: GABA (α1β2γ2) % efficacy at 10 μM
T1 construct: expressed in transfected cells; host or cells: Xenopus laevis oocytes, injected (ratio 1:1:1)
Method: The Two Electrode Voltage Clamp (TEVC) technique was used to investigate the effects of compounds at a concentration of 10 μM on GABAA receptors composed of the α1β2γ2 or α4β3δ subunits expressed in oocytes from the Xenopus laevis. GABA-evoked currents were recorded from oocytes that expressed the GABA receptors and the modulatory effects of the test items on these currents were investigated.
Ovaries were harvested from Xenopus laevis females that had been deeply anesthetized by cooling at 4° C. and immersion in Tricaine methanesulfonate (MS-222 at a concentration of 150 mg/L) in sodium bicarbonate (300 mg/L). Once anesthetized the animal was decapitated and pithed following the rules of animal rights from the Geneva canton. A small piece of ovary was isolated for immediate preparation while the remaining part was placed at 4° C. in a sterile Barth solution containing in mM NaCl 88, KCl 1, NaHCO3 2.4, HEPES 10, MgSO4·7H2O 0.82, Ca(NO3)2·4H2O 0.33, CaCl2·6H2O 0.41, at pH 7.4, and supplemented with 20 μg/ml of kanamycin, 100 unit/ml penicillin and 100 μg/ml streptomycin. All recordings were performed at 18° C. and cells were super-fused with medium containing in mM: NaCl 82.5, KCl 2.5, HEPES 5, CaCl2·2H2O, ·6H2O 1, pH 7.4.
Plasmids containing the RNAs of the human GABRA1/GABRB2/GABRG2 and GABRA4/GABRB3/GABRD genes were injected into oocytes using a proprietary automated injection device (Hogg el al., J. Neurosci. Methods, (2008) 169: 65-75). These genes encode for the α1β2γ2 and α4β3δ GABAA subunits respectively. Receptor expression was assessed using electrophysiology at least two days later. The ratio of RNA injection for α1β2γ2 was 1:1:1 and for α4β3δ was 5:1:5. Electrophysiological recordings were made using an automated process equipped with standard TEVC and data were captured and analyzed using a proprietary data acquisition and analysis software running under Matlab (Mathworks Inc.). The membrane potential of the oocytes was maintained at −80 mV throughout the experiments. To explore the effects of proprietary compounds, currents were evoked by applying 10 μM (α1β2γ2) or 3 μM (α4β3δ) GABA for 30 s. These concentrations approximated the EC50 concentration of GABA at each receptor subtype. Oocytes were then re-exposed to GABA again for 30 s. 15 s after beginning the GABA application, test article was co-applied at a concentration of 10 μM for 15 s. Potentiation of the peak current was assessed. Data was filtered at 10 Hz, captured at 100 Hz and analyzed using proprietary data acquisition and analysis software running under Matlab (Mathworks Inc.). For statistical analysis values were computed either with Excel (Microsoft) or Matlab (mathworks Inc.). To obtain mean measurements with standard deviations, all experiments were carried out using at least three cells.

T1 sequence (P14867 28-456): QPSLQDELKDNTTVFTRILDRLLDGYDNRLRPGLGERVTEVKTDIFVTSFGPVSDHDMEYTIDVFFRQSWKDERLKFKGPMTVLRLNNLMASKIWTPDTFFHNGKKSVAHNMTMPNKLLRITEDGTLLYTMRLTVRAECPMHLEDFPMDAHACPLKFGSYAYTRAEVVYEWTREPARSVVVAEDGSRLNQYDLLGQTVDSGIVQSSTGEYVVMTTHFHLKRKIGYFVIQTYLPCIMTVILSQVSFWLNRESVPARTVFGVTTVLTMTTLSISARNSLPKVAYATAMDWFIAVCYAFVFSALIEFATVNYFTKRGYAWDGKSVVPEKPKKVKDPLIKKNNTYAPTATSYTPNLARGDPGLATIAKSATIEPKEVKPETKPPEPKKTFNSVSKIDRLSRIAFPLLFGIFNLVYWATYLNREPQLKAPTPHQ
T1 sequence (P47870 26-512): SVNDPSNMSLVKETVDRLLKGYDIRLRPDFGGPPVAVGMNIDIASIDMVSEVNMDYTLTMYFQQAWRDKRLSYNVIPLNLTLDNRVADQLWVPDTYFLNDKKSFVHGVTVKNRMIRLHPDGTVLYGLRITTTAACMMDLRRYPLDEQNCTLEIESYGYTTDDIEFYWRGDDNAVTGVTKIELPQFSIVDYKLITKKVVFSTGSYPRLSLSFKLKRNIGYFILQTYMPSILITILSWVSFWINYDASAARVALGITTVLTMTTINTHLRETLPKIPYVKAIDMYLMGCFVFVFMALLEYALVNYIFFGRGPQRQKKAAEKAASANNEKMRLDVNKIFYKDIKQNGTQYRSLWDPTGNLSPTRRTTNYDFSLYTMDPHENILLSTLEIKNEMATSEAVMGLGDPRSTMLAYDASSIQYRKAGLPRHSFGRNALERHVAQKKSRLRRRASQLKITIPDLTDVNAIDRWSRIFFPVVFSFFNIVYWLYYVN
T1 sequence (P18507 40-475 partner): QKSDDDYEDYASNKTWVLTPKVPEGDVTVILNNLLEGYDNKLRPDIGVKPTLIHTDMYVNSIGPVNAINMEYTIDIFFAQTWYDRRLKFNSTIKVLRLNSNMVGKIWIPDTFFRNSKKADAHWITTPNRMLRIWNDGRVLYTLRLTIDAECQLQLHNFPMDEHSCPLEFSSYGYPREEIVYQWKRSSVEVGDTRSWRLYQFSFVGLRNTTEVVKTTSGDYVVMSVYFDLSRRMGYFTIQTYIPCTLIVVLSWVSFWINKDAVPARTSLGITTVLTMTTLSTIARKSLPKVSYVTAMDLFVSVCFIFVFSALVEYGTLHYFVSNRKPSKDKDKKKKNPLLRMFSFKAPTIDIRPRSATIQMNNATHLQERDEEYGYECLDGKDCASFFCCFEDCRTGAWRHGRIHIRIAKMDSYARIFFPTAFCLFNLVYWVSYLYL

| Structure (SMILES) | IC50 [1] | Emax at 10 µM [2] |
| --- | --- | --- |
| COC[C@]12CC[C@@](C)(O)C[C@@H]1CC[C@H]1[C@@H]3CC[C@H](C(=O)Cn4cc(S(C)(=O)=O)cn4)[C@@]3(C)CC[C@@H]12 [Compound 24] | 100 to 500 nM | 500 to 1000% |
| CCOC[C@]12CC[C@@](C)(O)C[C@@H]1CC[C@H]1[C@@H]3CC[C@H](C(=O)Cn4nnc(C)n4)[C@@]3(C)CC[C@@H]12 [Compound 25] | 10 to 50 nM | 500 to 1000% |
| COC[C@]12CC[C@@](C)(O)C[C@H]1CC[C@H]1[C@@H]3CC[C@H](C(=O)Cn4nccn4)[C@@]3(C)CC[C@@H]12 [Compound 31] | 10 to 50 nM | 500 to 1000% |
| COC[C@]12CC[C@@](C)(O)C[C@@H]1CC[C@H]1[C@@H]3CC[C@H](C(=O)Cn4ncc5ncccc54)[C@@]3(C)CC[C@@H]12 [Compound 38] | 50 to 100 nM | 500 to 1000% |
| COC[C@]12CC[C@@](C)(O)C[C@@H]1CC[C@H]1[C@@H]3CC[C@H](C(=O)Cn4nnc5ccccc54)[C@@]3(C)CC[C@@H]12 [Compound 39] | 10 to 50 nM | 500 to 1000% |
| COC[C@]12CC[C@@](C)(O)C[C@@H]1CC[C@H]1[C@@H]3CC[C@H](C(=O)Cn4nnc5ccc(F)cc54)[C@@]3(C)CC[C@@H]12 [Compound 41] | 10 to 50 nM | 1000 to 1500% |
| COC[C@]12CC[C@@](C)(O)C[C@@H]1CC[C@H]1[C@@H]3CC[C@H](C(=O)Cn4nnc5cc(F)ccc54)[C@@]3(C)CC[C@@H]12 [Compound 42] | 10 to 50 nM | 500 to 1000% |
| COC[C@]12CC[C@@](C)(O)C[C@@H]1CC[C@H]1[C@@H]3CC[C@H](C(=O)Cn4cc5ccncc5n4)[C@@]3(C)CC[C@@H]12 [Compound 44] | 10 to 50 nM | 1000 to 1500% |
| COC[C@]12CC[C@@](C)(O)C[C@@H]1CC[C@H]1[C@@H]3CC[C@H](C(=O)Cn4cnc5ccccc54)[C@@]3(C)CC[C@@H]12 [Compound 46] | 50 to 100 nM | 1000 to 1500% |
| COC[C@]12CC[C@@](C)(O)C[C@@H]1CC[C@H]1[C@@H]3CC[C@H](C(=O)Cn4nc5cccc(F)c5n4)[C@@]3(C)CC[C@@H]12 [Compound 49] | 10 to 50 nM | 500 to 1000% |
| COC[C@]12CC[C@@](C)(O)C[C@@H]1CC[C@H]1[C@@H]3CC[C@H](C(=O)Cn4nc5ccc(OC)cc5n4)[C@@]3(C)CC[C@@H]12 [Compound 50] | 10 to 50 nM | 500 to 1000% |
| COC[C@]12CC[C@@](C)(O)C[C@@H]1CC[C@H]1[C@@H]3CC[C@H](C(=O)Cn4nnc5c(F)c(F)ccc54)[C@@]3(C)CC[C@@H]12 [Compound 53] | 50 to 100 nM | 50 to 500% |
| COC[C@]12CC[C@@](C)(O)C[C@@H]1CC[C@H]1[C@@H]3CC[C@H](C(=O)Cn4nnc5c(F)cc(F)cc54)[C@@]3(C)CC[C@@H]12 [Compound 56] | 50 to 100 nM | 50 to 500% |
| COC[C@]12CC[C@@](C)(O)C[C@@H]1CC[C@H]1[C@@H]3CC[C@H](C(=O)Cn4nnc5c(Cl)cccc54)[C@@]3(C)CC[C@@H]12 [Compound 60] | 10 to 50 nM | 50 to 500% |
| COC[C@]12CC[C@@](C)(O)C[C@@H]1CC[C@H]1[C@@H]3CC[C@H](C(=O)Cn4nc5cccc(Cl)c5n4)[C@@]3(C)CC[C@@H]12 [Compound 61] | < 10 nM | 500 to 1000% |
| COC[C@]12CC[C@@](C)(O)C[C@@H]1CC[C@H]1[C@@H]3CC[C@H](C(=O)Cn4nnc5c(OC)c(OC)ccc54)[C@@]3(C)CC[C@@H]12 [Compound 63] | 10 to 50 nM | 500 to 1000% |
| COC[C@]12CC[C@@](C)(O)C[C@@H]1CC[C@H]1[C@@H]3CC[C@H](C(=O)Cn4nc5cc(OC)cc(OC)c5n4)[C@@]3(C)CC[C@@H]12 [Compound 65] | < 10 nM | 500 to 1000% |
| COC[C@]12CC[C@@](C)(O)C[C@H]1CC[C@H]1[C@@H]3CC[C@H](C(=O)Cn4nc5ccc(F)cc5n4)[C@@]3(C)CC[C@@H]12 [Compound 73] | < 10 nM | 500 to 1000% |
| COC[C@]12CC[C@@](C)(O)C[C@H]1CC[C@H]1[C@@H]3CC[C@H](C(=O)Cn4nnc5ccc(F)cc54)[C@@]3(C)CC[C@@H]12 [Compound 74] | < 10 nM | 500 to 1000% |
| COC[C@]12CC[C@@](C)(O)C[C@H]1CC[C@H]1[C@@H]3CC[C@H](C(=O)Cn4nnc5cc(F)ccc54)[C@@]3(C)CC[C@@H]12 [Compound 75] | 10 to 50 nM | 500 to 1000% |
| COC[C@]12CC[C@@](C)(O)C[C@H]1CC[C@H]1[C@@H]3CC[C@H](C(=O)Cn4nnc5ccc(F)c(F)c54)[C@@]3(C)CC[C@@H]12 [Compound 77] | < 10 nM | 1000 to 1500% |
| COC[C@]12CC[C@@](C)(O)C[C@H]1CC[C@H]1[C@@H]3CC[C@H](C(=O)Cn4cnc5ccccc54)[C@@]3(C)CC[C@@H]12 [Compound 80] | 10 to 50 nM | 500 to 1000% |
| COC[C@]12CC[C@@](C)(O)C[C@H]1CC[C@H]1[C@@H]3CC[C@H](C(=O)Cn4nnc5cccc(F)c54)[C@@]3(C)CC[C@@H]12 [Compound 81] | 10 to 50 nM | 500 to 1000% |
| COC[C@]12CC[C@@](C)(O)C[C@H]1CC[C@H]1[C@@H]3CC[C@H](C(=O)Cn4nc5cccc(F)c5n4)[C@@]3(C)CC[C@@H]12 [Compound 83] | < 10 nM | 1000 to 1500% |
| COC[C@]12CC[C@@](C)(O)C[C@@H]1CC[C@H]1[C@@H]3CC[C@H](C(=O)Cn4nc5cc(F)c(F)cc5n4)[C@@]3(C)CC[C@@H]12 [Compound 97] | 10 to 50 nM | 500 to 1000% |
| COC[C@]12CC[C@@](C)(O)C[C@@H]1CC[C@H]1[C@@H]3CC[C@H](C(=O)Cn4nc5cc(Cl)cnc5n4)[C@@]3(C)CC[C@@H]12 [Compound 99] | 10 to 50 nM | 1000 to 1500% |
